The values that follow come from paper PMC9656727, “Biodereplication of Antiplasmodial Extracts: Application of the Amazonian Medicinal Plant Piper coruscans Kunth” (Molecules, 2022).

Series [1] concerns AB943 primary human dermal fibroblast cell line. Description: Cytotoxicity, Alamar Blue. The class given is cell-based. Particulars: for Selectivity Index CC50/IC50: CC50 on AB943 fibroblasts / IC50 on 3D7. How it is done: (§1) Cells were seeded in 96-well plates (20,000 cells/mL) and incubated for 24 h, then treated with the drug for 72 h. […] Fluorescent viable cells were monitored after 5 h of incubation at 37 °C at a wavelength of 530 nm for excitation and 590 nm for emission in an FL600 luminescence spectrometer (Biotek, Colmar, France).
Background: Resazurin is reduced to fluorescent resorufin, in cell work by metabolically active cells.

For series [2], the system named is 3D7 Plasmodium falciparum strain. The series can be described thus: In vitro antiplasmodial activity on Plasmodium falciparum (SYBR Green I). The format is cell-based. The following applies: for IC50: chloroquine-sensitive 3D7 strain, 44 h incubation. How it is done: The strain was maintained in O+ human erythrocytes in an albumin-supplemented RPMI medium under continuous culture using the candle-jar method. […] After 44 h of incubation at 37 °C, the plates were subjected to 3 freeze-thaw cycles to achieve complete hemolysis. The parasite lysis suspension was diluted 1:5 in lysis buffer. In vitro susceptibility is expressed as the concentration inhibiting 50% of the parasite's growth (IC50). Parasite growth was determined using SYBR® Green I, a dye with strong fluorescence enhancement upon contact with DNA. Incorporation of the SYBR® Green I (Fisher Scientific, Illkirch-Graffenstaden, France) in parasite DNA was measured using the Master […]® (Eppendorf, Montesson, France) according to the following program to increase the SYBR® Green I incorporation: 90 °C (1 min) and a decrease to 10 °C over 5 min followed by fluorescence reading. Untreated infected and uninfected erythrocytes were used as controls and chloroquine diphosphate (Sigma, Lezennes, France) was used as a reference drug. IC50 was calculated by IC-estimator online software (www.antimalarial-icestimator.net, accessed on 18 January 2018).

The nature of series [3]: Heme-binding assay by mass spectrometry with collision-induced dissociation of adducts (DV50). The following applies: energy dissociating 50% of the heme-Fe(III) adduct, NA = no adduct. How it is done: Hemin (iron-containing porphyrin with chlorine counterion) and the crude ethanolic extract were dissolved in DMSO at 5 mM and 10 mg/mL, respectively. Pure compounds were dissolved in DMSO at the concentration of 10 mM, except for Tween 20, which was dissolved in water at 10 µM. Citric-buffer-saturated octanol (CBSO) was prepared by mixing 5 mL of citric acid, 50 mM and pH 5.2, and 15 mL of N-octanol (anhydrous, ≥99%) and letting it settle at 23 °C for 30 min. The upper phase of the CBSO biphasic system was used. Autosampler 1260 infinity G1367E 1260 Hip ALS (Agilent Technologies, Santa Clara, CA, USA) was used to perform the automatic mixing of aliquots in 384-well plates. The incubation mixture was as follows: Compound 5 µL + heme 5 µL + Tween 5 µL + organic phase of CBSO 85 µL. Samples were injected in infusion mode (direct injection) in a 6530 Accurate-Mass QToF LC–MS instrument (Agilent Technologies) with the following settings: Positive ESI mode and 2 GHz acquisition rate. […] In positive-ion mode, purine ion C5H4N4 [M + H]^+ (m/z 121.050873) and the hexakis (1H,1H,3H-tetrafluoropropoxy)-phosphazene ion C18H18F24N3O6P3 [M+H]^+ (m/z 922.009798) were used as internal lock masses. Full scans were acquired at a resolution of ca 11 000 (at m/z 922).
To obtain heme-Fe(II) from hemin (heme-Fe(III)), glutathione (50 mM in water) was mixed with hemin (5 mM in DMSO) in a ratio of 1:1 and left to incubate for 40 min. This solution was used as the heme solution, as described above.
Dissociation in the collision chamber was caused by increasing collision energies from 0 to 56 eV. The MS–MS targeted mode, an isolation width of m/z 1.3, and the flow injection analysis mode (FIA) were applied. MS–MS parameters were the same as described above. The results were plotted, and a sigmoidal regression curve allowed us to calculate the energy necessary to dissociate 50% of adducts (DV50) using GraphPrism software version 5.00 (San Diego, CA, USA) or a Python script.
Ethanolic extract and hemin (heme-Fe(III)) were mixed and injected using infusion mode for the MS–MS experiment. Three collision energies were used: 30, 50, and 70 eV. The ten most intense ions (top 10) per cycle were selected. MS–MS acquisition parameters were as follows: m/z range of 100–1700, default charge of 1, a minimum intensity of 5000 counts, 3 spectra/s, and isolation width of 1.3 m/z. A list of compounds was generated by the “find by auto MSMS” algorithm of MassHunter software (Qualitative Analysis B.07.00, Agilent Technologies). The “extract average MS–MS spectrum” mode was used to summarize and average the results of the 3 collision energies. Exportation of generated spectra was performed in MGF format using the option “entire data file”. The information generated was uploaded onto the online platform GNPS (global natural product social network). Parameters used for the algorithm were as follows: Precursor ion mass tolerance = 1; fragment ion mass tolerance = 0.3; min pairs cos = 0.7; minimum matched fragment ions = 3; and minimum cluster size = 1. From the data, a network was calculated measuring correlations and was plotted using Cytoscape 3.5.1. […] An alkaloid extract from Cinchona pubescens Vahl (Rubiaceae) and eight antiplasmodial drugs (chloroquine, quinine, amodiaquine, ketoconazole, miconazole, mefloquine, praziquantel, and sulfadoxine) were used as examples of the visualization of adduct fragments by MN. The methodology and conditions were the same as described above.

In series [4] the test system is 3D7 Plasmodium falciparum strain. Particulars: artemisinin reference value; read-out: 3D7 Sensitive Strain IC50; cited from earlier work.
Series [5] in a line: Cytotoxicity, Alamar Blue. The following applies: human, 72 h treatment. The class given is cell-based, human. The procedure: as §1
The test system of the next series is Trypanosoma brucei. The arrangement: method as in PMID 28000515. Particulars: read-out: IC50 against Trypanosoma brucei; cited from earlier work.
Where [6] appears, read: AB943 primary human dermal fibroblast cells.

Like-named read-outs stand apart in the source and are kept apart here. Some results are limits rather than exact numbers.

In the case of pinocembrin [Compound 8], in series [1] (72 h treatment, read-out: AB943 Primary Human Fibroblast CC50), the CC50 (as a rule, the concentration at which the toxic effect on the cells reaches its halfway point) is above 100 µM. For the same molecule, inhibition in series [2] was half-maximal at 78 µM (IC50). This molecule yielded a DV50 in series [3] of 8.68 eV.
For `C[C@@H]1CC[C@H]2[C@@H](C)C(=O)O[C@@H]3O[C@@]4(C)CC[C@@H]1[C@]32OO4` [ART, Artemisinin], in series [4], the IC50 (as a rule, the point on the concentration scale where inhibition reaches its midpoint) was 0.004 µM.
For `COc1ccc(CCNC(=O)c2ccccc2)cc1` [Compound 11, N-Benzoyltyrarnine methyl ether], the CC50 at 72 h in series [5] (setting [6]) was above 100 µM. In series [1], the “Selectivity Index CC50/IC50” value is 1. Moreover, in series [2] (3D7 strain), the “antiplasmodial activity (in words)” value is “no antiplasmodial activity”. Also, the half-inhibitory concentration (IC50) in series [2] (Plasmodium falciparum) is above 100 µM. For the same molecule, in series [3], the DV50 is 9.45 eV.
In series [5] (setting [6]), `COC(=O)C1=CC(O)C(O)(C(=O)/C=C/c2ccccc2)C1` (stereo not drawn) [Compound 10] registered a CC50 at 72 h above 100 µM. In addition, the “Selectivity Index CC50/IC50” value in series [1] was 1. For the same molecule, the IC50 in series [2] (Plasmodium falciparum) is above 100 µM.
Turning to `COc1cc(O)cc(O)c1C(=O)/C=C/c1ccccc1` [Compound 3, cardamomin], the CC50 at 72 h in series [5] (read-out: AB943 Primary Human Fibroblast CC50) stood at 58 µM. Also, the “Selectivity Index CC50/IC50” value in series [1] is 10.5. In addition, the IC50 in series [2] (Plasmodium falciparum) is 5.5 µM; in the series with Trypanosoma brucei, 1.8 µM. In series [3], the DV50 is 5.60 eV.
For the molecule `CCN(CC)CCCC(C)Nc1ccnc2cc(Cl)ccc12` (stereo not drawn) [CQ, Chloroquine, reference compound], the figures for the DV50 in series [3] and in series [3] (listed as chloroquine) were 14.27 eV and “above 14 eV”, respectively.
Molecule `COc1cc2c(c(O)c1C)C(=O)CC(c1ccccc1)O2` (stereo not drawn) [Compound 4, strobopinin 7-methyl ether] gave a CC50 at 72 h in series [5] (setting [6]) above 100 µM. The molecule also displayed an IC50 in series [2] (Plasmodium falciparum) of 60 µM.
Turning to `Cc1c(O)c(C)c2c(c1O)C(=O)CC(c1ccccc1)O2` (stereo not drawn) [Compound 6, desmethoxymatteucinol], the CC50 at 72 h in series [5] (setting [6]) is above 100 µM. For the same molecule, the “Selectivity Index CC50/IC50” value in series [1] is 1.4. Moreover, half-maximal inhibition in series [2] (Plasmodium falciparum) (IC50) was put at 71 µM.
For `O=C1C=Cc2ccccc21` [Compound 12, 1H-inden-1-one], in that order: above 100 µM, 1 and above 100 µM.
For `COc1cc(OC)c(C(=O)/C=C/c2ccccc2)c(O)c1C` [Compound 1, aurentiacin], the midpoint of cytotoxicity in series [5] (setting [6]), the CC50 at 72 h, lay at 68.5 µM. Also, the “Selectivity Index CC50/IC50” value in series [1] stood at 30.4. This molecule displayed an IC50 in series [2] (Plasmodium falciparum) of 2.25 µM. In series [3], this molecule registered a DV50 of 5.15 eV.
`COc1c(C)c(O)c2c(c1C)OC(c1ccccc1)CC2=O` (stereo not drawn) [Compound 5, 5-hydroxy-7-methoxy-6,8-dimethyl flavanone] showed a CC50 at 72 h in series [5] (setting [6]) of 23 µM. In addition, in series [1], the “Selectivity Index CC50/IC50” value was below 1. 33.2 µM corresponded to half-maximal inhibition in series [2] (Plasmodium falciparum) (IC50).
As for alpinetin [Compound 7], in series [1], the CC50 is above 100 µM. In series [2], this molecule came in with an IC50 of 72 µM. This molecule yielded a DV50 in series [3] of 8.40 eV.
On to `COc1cc(O)c(C)c(O)c1C(=O)/C=C/c1ccccc1` [Compound 2, 2′, 4′-dihydroxy-6′-methoxy-3′-methylchalcone], for which, in series [5] (setting [6]), the CC50 at 72 h is above 100 µM. Further, the “Selectivity Index CC50/IC50” value in series [1] was found to be 1.9. In series [2] (Plasmodium falciparum), it took 51 µM to reach half-maximal inhibition (IC50). Besides, in series [3], the DV50 turned out to be 5.93 eV.
For `COc1cc(OC)c2c(c1C)OC(c1ccccc1)CC2=O` (stereo not drawn) [Compound 9, dimethyl cryptostrobin], in that order: above 100 µM, 1.2, 85 µM and 7.68 eV.
